According to patent publication US20060035946A1, “Amyloid-binding, metal-chelating agents” (The General Hospital Corporation, priority 2003, published 2006):
Blank lines part the entries; values can stand above or below the molecule they belong to.

Legend:
[1] = system: cortical amyloid accumulation; conditions: Tg2576 transgenic mouse model for Alzheimer's disease; R. A. Cherny et al., Neuron 2001; cited from earlier work
Aβ1-40 [2] = biological target: T1, Aβ1-40 (Homo sapiens, UniProt P05067); assay: Inhibition of Zn2+-induced aggregation of Aβ measured by turbidity; format: biochemical; conditions: Aβ1-40 10 μM, Zn2+ 25 μM, compound 25 μM, pH 7.4; FIG. 8
T1 construct: Human Aβ peptides (Aβ1-40 and Aβ1-42) were synthesized; purchased W. M. Keck Foundation Biotechnology Resource Laboratory (Yale); Glabe Laboratory (UC Irvine); Multhaup Laboratory (Heidelberg); U.S. Peptide, Inc; Aldrich-Sigma; host or cells: chemical synthesis (solid-phase Fmoc)
T1 sequence (P05067 672-711 limits assumed): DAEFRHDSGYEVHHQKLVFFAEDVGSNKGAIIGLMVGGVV
From the text: (§1) Human Aβ peptides (Aβ1-40 and Aβ1-42) were synthesized using solid-phase Fmoc chemistry at the W. M. Keck Foundation Biotechnology Resource Laboratory (Yale University, New Haven, Conn.); Glabe Laboratory (University of California, Irvine, Calif.); or Multhaup Laboratory (University of Heidelberg, Germany); or purchased from U.S. Peptide, Inc. (Rancho Cucamonga, Calif.); or Aldrich-Sigma (St. Louis, Mo.). The syntheses were confirmed by purification by reverse-phase HPLC, amino acid sequencing, and mass spectrometry. Synthetic Aβ peptides were dissolved in trifluoroethanol (30% in Milli-Q water (Millipore Corporation, Milford, Mass.)) or 20 mM HEPES (pH 8.5) at a concentration of […], centrifuged for 20 minutes at 10,000×g and the supernatant (stock Aβ) used for subsequent assays on the day of the experiment.
Turbidity measurements were performed as previously described (X. Huang et al., J. Biol. Chem. 1997, 272: 26464-26470). […] Subsequently, 20 μL aliquots of 10 mM of the bifunctional molecule to be tested or 10 mM Zn^2+ were added to the mixture alternatively, and following a 2 min. delay, a further four readings were taken at 1 min. intervals. After the final addition of the bifunctional molecule and turbidity reading, the mixtures were incubated for an additional 30 minutes before taking the last readings. […]

HSA = HSA (Homo sapiens, UniProt P02768); assay: MRI signals from spherical phantoms in the presence of HSA; format: binding; conditions: PBS pH 7.4, FIG. 11
Sequence of HSA (P02768 25-609): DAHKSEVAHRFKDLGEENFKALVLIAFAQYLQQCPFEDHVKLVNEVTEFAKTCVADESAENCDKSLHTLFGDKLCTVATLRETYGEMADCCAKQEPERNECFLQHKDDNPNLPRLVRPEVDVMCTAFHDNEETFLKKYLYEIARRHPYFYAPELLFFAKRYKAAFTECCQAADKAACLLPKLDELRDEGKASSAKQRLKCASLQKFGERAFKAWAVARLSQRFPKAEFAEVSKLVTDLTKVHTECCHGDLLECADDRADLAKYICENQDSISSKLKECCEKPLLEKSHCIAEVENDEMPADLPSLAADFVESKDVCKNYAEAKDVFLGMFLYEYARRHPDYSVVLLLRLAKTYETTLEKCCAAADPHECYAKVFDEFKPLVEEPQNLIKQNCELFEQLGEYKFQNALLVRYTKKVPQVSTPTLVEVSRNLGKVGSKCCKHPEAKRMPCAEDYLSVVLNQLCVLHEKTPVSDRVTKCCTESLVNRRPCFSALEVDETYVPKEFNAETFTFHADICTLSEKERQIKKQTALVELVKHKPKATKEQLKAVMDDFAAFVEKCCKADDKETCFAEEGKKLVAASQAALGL
Method: (§2) Different solution mixtures (containing a contrast imaging agent, Gd-XH1 or Gd-DTPA, in the presence or absence of Aβ1-40, Aβ1-42 or HSA in PBS, pH 7.4) were injected into 4.5-mL hollow spheres (made of polypropylene) and subjected to a 3-T magnetic scanner (Simens). Spin-Echo scanning mode was used and T1 signals were measured for each solution using 12 TR values (TE=5 ms), with R1=1/T1, and R1(obs)=R1(O)+R1 (Gd-XH1-Aβ1-40 or -Aβ1-42).

Aβ1-40 [3] = biological target: T1, Aβ1-40; assay: MRI signals from spherical phantoms in the presence of Aβ1-40; format: binding; conditions: PBS pH 7.4, FIG. 11
From the text: as §1, §2

APP = assay: Determination of APP protein synthesis by SDS-PAGE in SH-SY5Y cells; format: cell-based, human; conditions: increasing XH1 concentration, 48 hours, FIG. 10A
Method: (§3) In SH-SY5Y human neuroblastoma cells, the capacity of XH1 to suppress APP synthesis was measured by SDS-PAGE. Control proteins (β-tubulin and/or two amyloid-precursor-like proteins, APLP1 and APLP2) were used to ensure target suppression specificity of the inventive bifunctional molecule.
(§4) SDS-PAGE. SH-SY5Y human neutoblastoma cells were harvested and washed with cold PBS three times and then lysed with M-PER™ mammalian protein extraction reagent (Pierce) mixed with protease inhibitor cocktails (Roche). The cell lysate was […] for 15 minutes at 13,000 rpm in a cold room, and the supernatants were BCA assayed for total protein concentrations. Protein blotting was performed on pre-casted NuPAGE™ 4-12% Bis-Tris Gel (Invitrogen) with equal protein loading (15 μg/well). It was run at 200 V for 45 minutes and transferred at 75 mA/gel for 95 minutes. The blots were probed by primary and secondary antibodies according to manufacturer's instructions and finally washed for 2-3 hours at 15 min. intervals. The blots were then developed using a chemiluminescent kit (Pierce).

[4] = system: human SH-SY5Y neuroblastoma cells; assay: Neurotoxicity in neuroblastoma cells (LDH release assay); format: cell-based; conditions: XH1 0, 1, 5 or 10 μM, 48 hours after treatment; FIG. 9B
Method: The neurotoxicity of XH1 was also tested on human SH-SY5Y neuroblastoma cells. The SH-SY5Y cell line is commonly used to study neuritogenesis, differentiation, and tumorigenesis (D. Vu et al., Brain Res. Mol. Brain Res. 2003, 115: 93-103). SH-SY5Y cells were obtained from American Type Culture Collection and grown in Dulbecco's modified Eagle's medium supplemented with 10% fetal bovine serum (Gibco-BRL) and antibiotics.
Human SH-SY5Y neuroblastoma cells were incubated in the presence of XH1 (0, 1, 5 or 10 μM) (95% […], 5% CO2, 85% humidity, 37° C.) and cell viability was assessed 48 hours after treatment using the LDH release assay as described above.

β-tubulin = assay: Control protein expression by SDS-PAGE in SH-SY5Y cells; format: cell-based, human; conditions: same conditions as APP, FIG. 10A
Method: as §3, §4

[5] = system: E17 rat cortical primary neurons; assay: Neurotoxicity in primary neuronal culture (LDH release and MTT assays); format: cell-based; conditions: XH1 0, 1 or 10 μM, 48 hours after treatment; FIG. 9A
From the text: A primary neuronal culture was used to test the neurotoxicity of the parent bifunctional molecule, XH1. E17 rat cortical primary neurons were obtained from pathogen-free female Sprague-Dawley rats (purchased from Taconic Farms, Mass.) after 17 days of gestation, as described by G. J. Brewer and C. W. Cotman (in Brain Res. 1989, 494: 65-74). The protocol used allowed long-term culture of neurons at low density under precisely defined culture conditions. This protocol provided up to 90% neuronal culture. It was desirable that a small population of glial cells be co-cultured with the rat cortical primary neurons as these cells support neuronal survival. Cytosine arabinoside (1 μM) was used to control the growth of glial cells in the culture preparation. The neuronal population was checked regularly using neuron-specific enolase (and/or astroglia-specific S100β) immunohistochemistry.
E17 rat cortical primary neurons were grown under 95% […], 5% CO2, 85% humidity conditions, at 37° C. for 4 days in serum-free Neurobasal™ medium with B-27 supplement (Life Technologies, Inc.), 20 μM L-glutamate, 100 units/mL penicillin, […] streptomycin, and 2 mM L-glutamine. On the 5th day (treatment day), the medium was replaced with serum-free Neurobasal™ medium plus L-glutamine without B-27 supplement. […]

APLP1 = assay: Control protein synthesis by SDS-PAGE in SH-SY5Y cells; format: cell-based, human; conditions: XH1 up to 10 μM, FIG. 10B
Method: as §3, §4

APLP2 = assay: as above; format: cell-based, human; conditions: XH1 up to 10 μM, FIG. 10B
Method: as §3, §4

Structure (SMILES): Oc1c(I)cc(Cl)c2cccnc12 [Clioquinol]
cortical amyloid accumulation [1]: marked inhibition

Zn2+-induced aggregation of Aβ1-40 in solution (turbidity at 400 nm) (Aβ1-40 [2]): significantly decrease
Structure (SMILES): O=C(O)CN(CCN(CC(=O)O)CC(=O)O)CCN(CC(=O)O)CC(=O)O [DTPA, diethylene triaminepentaacetic acid, reference compound]

effect on MRI signal of combination with HSA (HSA): No effects
effect on MRI signal of combination with Aβ (Aβ1-40 [3]): No effects
Structure (SMILES): O=C([O-])CN(CCN(CC(=O)[O-])CC(=O)O)CCN(CC(=O)[O-])CC(=O)O.[Gd+3] [Gd-DTPA]

Structure (SMILES): O=C(O)CN(CCN(CC(=O)O)CC(=O)Nc1ccc(-c2nc3ccccc3s2)cc1)CCN(CC(=O)O)CC(=O)Nc1ccc(-c2nc3ccccc3s2)cc1 [XH1]
APP synthesis (APP): decrease in APP synthesis
cell death (LDH release assay) [4]: does not cause any significant cell death
β-tubulin expression (β-tubulin): no effects
cell death (LDH release and MTT assays) [5]: does not induce any significant cell death
APLP1 synthesis (APLP1): did not affect
APLP2 synthesis (APLP2): did not affect
Zn2+-induced aggregation of Aβ1-40 in solution (turbidity at 400 nm) (Aβ1-40 [2]): significantly decrease
